Assay results as given in patent US12590094B2, “Compounds for the treatment of neurodegenerative and metabolic disorders” (UNIVERSITY OF FLORIDA RESEARCH FOUNDATION, INCORPORATED, priority 2019, dated 2026).

Test system: Cells exposed to TPrP
Experiment: cells
Settings: read-out: Viability EC50

SMILES: COc1ccc(-c2cc(C(C)(C)C)n3ncc(C(=O)NCCCn4ccnc4)c3n2)cc1 [SR0-28464]
- EC50: 1.2 nM

SMILES: COc1ccc(-c2cc(C(F)(F)F)n3ncc(C(=O)NCCCn4ccnc4C(F)(F)F)c3n2)cc1 [SR0-28466]
- EC50: 20 nM

SMILES: COc1ccc(-c2cc(C(F)(F)F)n3ncc(C(=O)NCCCn4ccnc4F)c3n2)cc1 [SR0-28467]
- EC50: 16 nM

SMILES: CCc1nccn1CCCNC(=O)c1cnn2c(C(F)(F)F)cc(-c3ccc(OC)cc3)nc12 [SR0-29244]
- EC50: 25 nM

SMILES: CCOc1ccc(-c2cc(C)n3ncc(C(=O)NCCCn4ccnc4C)c3n2)cc1 [SR0-29245]
- EC50: 1.2 nM

SMILES: Cc1nccn1CCCNC(=O)c1cnn2c(C)cc(-c3ccc(OC(F)(F)F)cc3)nc12 [SR0-29246]
- EC50: 2 nM

SMILES: Cc1nccn1CCCNC(=O)c1cnn2c(C)cc(-c3ccc4c(c3)OCO4)nc12 [SR0-29247]
- EC50: 2.2 nM

SMILES: COc1cc(-c2cc(C)n3ncc(C(=O)NCCCn4ccnc4C)c3n2)cc(OC)c1OC [SR0-29248]
- EC50: 4 nM

SMILES: COc1ccc(-c2cc(N3CCCC3)n3ncc(C(=O)NCCCn4ccnc4C)c3n2)cc1 [SR0-29249]
- EC50: 2.2 nM

SMILES: COc1ccc(-c2cc(C(F)(F)F)n3nc(C)c(C(=O)NCCCn4ccnc4C)c3n2)cc1 [SR0-29250]
- EC50: 3.6 nM

SMILES: Cc1nccn1CCCNC(=O)c1cnn2c(C(C)(C)C)cc(-c3ccc4c(c3)OCO4)nc12 [SR0-31104]
- EC50: 10 nM

SMILES: Cc1c(-c2ccc3c(c2)OCO3)nc2c(C(=O)NCCCn3ccnc3C)cnn2c1C [SR0-31106]
- EC50: 30 nM

SMILES: Cc1cc(-c2ccc3c(c2)OCO3)nc2c(C(=O)NCCCn3ccnc3S(C)(=O)=O)cnn12 [SR0-31110]
- EC50: > 50 nM

SMILES: COc1ccc(-c2cc(C)n3ncc(C(=O)NCCCn4ccnc4)c3n2)cc1 [SR3-5170]
- EC50: 1 nM

SMILES: COCc1cc(-c2ccc(OC)cc2)nc2c(C(=O)NCCCn3ccnc3)cnn12 [SR3-5250]
- EC50: 0.5 nM

SMILES: COc1ccc(-c2cc(C(F)(F)F)n3ncc(C(=O)NCCn4ccnc4)c3n2)cc1 [SR3-5290]
- EC50: > 32 nM

SMILES: CCc1cc(-c2ccc(OC)cc2)nc2c(C(=O)NCCCn3ccnc3)cnn12 [SR3-5310]
- EC50: 0.6 nM

SMILES: COc1ccc(-c2cc(C(C)C)n3ncc(C(=O)NCCCn4ccnc4)c3n2)cc1 [SR3-5311]
- EC50: 0.4 nM

SMILES: COc1ccc(-c2cc(C(F)(F)F)n3ncc(C(=O)NCCCCn4ccnc4)c3n2)cc1 [SR3-5312]
- EC50: 6 nM

SMILES: COc1ccc(-c2cc(C(F)(F)F)n3ncc(C(=O)NCCCn4cnc5ccccc54)c3n2)cc1 [SR3-5313]
- EC50: > 16 nM

SMILES: COc1ccc(-c2cc(C(F)(F)F)n3ncc(C(=O)N(C)CCCn4ccnc4)c3n2)cc1 [SR3-5314]
- EC50: > 16 nM

SMILES: CCOC(=O)c1c(CC)ncc2[nH]c3cc(OC)c(OC)cc3c12 [SR26084]
- EC50: ~10000 nM

SMILES: CCc1c(C(=O)O)ncc2[nH]c3cc(OC)c(OC)cc3c12 [SR26266]
- EC50: > 4000 nM

SMILES: CN(C)S(=O)(=O)c1ccc(Nc2nc(-c3ccncc3)cs2)cc1 [SR-27744]
- EC50: 60 nM

SMILES: Cc1nc(C)c(-c2csc(Nc3ccc(S(=O)(=O)N(C)C)cc3)n2)s1 [SR-27764]
- EC50: 70 nM

SMILES: CCNS(=O)(=O)c1ccc(Nc2nc(-c3ccncc3)cs2)cc1 [SR-27784]
- EC50: 60 nM

SMILES: CCNS(=O)(=O)c1ccc(Nc2nc(-c3sc(C)nc3C)cs2)cc1 [SR-27785]
- EC50: 500 nM

SMILES: CCCNS(=O)(=O)c1ccc(Nc2nc(-c3ccncc3)cs2)cc1 [SR-27804]
- EC50: 170 nM

SMILES: CCCNS(=O)(=O)c1ccc(Nc2nc(-c3sc(C)nc3C)cs2)cc1 [SR-27805]
- EC50: > 500 nM

SMILES: CNS(=O)(=O)c1ccc(Nc2nc(-c3ccncc3)cs2)cc1 [SR-27806]
- EC50: 60 nM

SMILES: CCCCNS(=O)(=O)c1ccc(Nc2nc(-c3ccncc3)cs2)cc1 [SR-27808]
- EC50: 170 nM

SMILES: CCCCNS(=O)(=O)c1ccc(Nc2nc(-c3sc(C)nc3C)cs2)cc1 [SR-27809]
- EC50: > 500 nM

SMILES: c1ccc2c(c1)CCC2Nc1nnc(Cc2ccncc2)c2ccccc12 (centres unmarked) [SR-27884]
- EC50: 500 nM

SMILES: c1ccc2c(c1)CC(Nc1nnc(Cc3ccncc3)c3ccccc13)C2 [SR-27885]
- EC50: 200 nM

SMILES: COc1ccc(CNc2nnc(Cc3ccncc3)c3ccccc23)cc1OC [SR-27886]
- EC50: 140 nM

SMILES: c1ccc2[nH]c(CNc3nnc(Cc4ccncc4)c4ccccc34)nc2c1 [SR-27887]
- EC50: 200 nM

SMILES: c1ccc2oc(CNc3nnc(Cc4ccncc4)c4ccccc34)nc2c1 [SR-27888]
- EC50: 45 nM

SMILES: c1ccc2c(c1)CC(Nc1nnc(Cc3ccncc3)c3ccccc13)CO2 (centres unmarked) [SR-27889]
- EC50: 200 nM

SMILES: c1ccc2c(c1)CC(CNc1nnc(Cc3ccncc3)c3ccccc13)CO2 (centres unmarked) [SR-27890]
- EC50: 140 nM

SMILES: c1ccc2c(c1)OCCC2Nc1nnc(Cc2ccncc2)c2ccccc12 (centres unmarked) [SR-27891]
- EC50: 200 nM

SMILES: c1ccc(OCCNc2nnc(Cc3ccncc3)c3ccccc23)cc1 [SR-27892]
- EC50: 500 nM

SMILES: O=S(=O)(c1ccc(Nc2nc(-c3ccncc3)cs2)cc1)N1CCCC1 [SR-28544]
- EC50: 350 nM

SMILES: Cc1nc(C)c(-c2csc(Nc3ccc(S(=O)(=O)N4CCCC4)cc3)n2)s1 [SR-28545]
- EC50: > 500 nM

SMILES: O=S(=O)(c1ccc(Nc2nc(-c3ccncc3)cs2)cc1)N1CCCCC1 [SR-28546]
- EC50: 400 nM

SMILES: Cc1nc(C)c(-c2csc(Nc3ccc(S(=O)(=O)N4CCCCC4)cc3)n2)s1 [SR-28547]
- EC50: > 500 nM

SMILES: O=S(=O)(c1ccc(Nc2nc(-c3ccncc3)cs2)cc1)N1CCOCC1 [SR-28548]
- EC50: 170 nM

SMILES: Cc1nc(C)c(-c2csc(Nc3ccc(S(=O)(=O)N4CCOCC4)cc3)n2)s1 [SR-28549]
- EC50: 400 nM

SMILES: NS(=O)(=O)c1ccc(Nc2nc(-c3ccncc3)c(CO)s2)cc1 [SR-28550]
- EC50: 60 nM

SMILES: Cc1nc(C)c(-c2nc(Nc3ccc(S(N)(=O)=O)cc3)sc2CO)s1 [SR-28551]
- EC50: 300 nM

SMILES: Cc1nc(N)sc1-c1csc(Nc2ccc(S(N)(=O)=O)cc2)n1 [SR-28552]
- EC50: 160 nM

SMILES: O=S(=O)(Nc1ccccc1)c1ccc(Nc2nc(-c3ccncc3)cs2)cc1 [SR-29444]
- EC50: > 500 nM

SMILES: Cc1nc(C)c(-c2csc(Nc3ccc(S(=O)(=O)Nc4ccccc4)cc3)n2)s1 [SR-29445]
- EC50: > 500 nM

SMILES: Cc1ccc(NS(=O)(=O)c2ccc(Nc3nc(-c4ccncc4)cs3)cc2)cc1 [SR-29446]
- EC50: > 500 nM

SMILES: Cc1ccc(NS(=O)(=O)c2ccc(Nc3nc(-c4sc(C)nc4C)cs3)cc2)cc1 [SR-29447]
- EC50: > 500 nM

SMILES: O=S(=O)(Nc1ccc(F)cc1)c1ccc(Nc2nc(-c3ccncc3)cs2)cc1 [SR-29448]
- EC50: > 500 nM

SMILES: Cc1nc(C)c(-c2csc(Nc3ccc(S(=O)(=O)Nc4ccc(F)cc4)cc3)n2)s1 [SR-29449]
- EC50: > 500 nM

SMILES: NS(=O)(=O)c1ccc(Nc2nc(-c3ccc(S(N)(=O)=O)cc3)cs2)cc1 [SR-29450]
- EC50: 15 nM

SMILES: CNS(=O)(=O)c1ccc(Nc2nc(-c3ccc(S(N)(=O)=O)cc3)cs2)cc1 [SR-29451]
- EC50: 20 nM

SMILES: CC(O)c1cccc(Nc2nnc(Cc3ccncc3)c3ccccc23)c1 (centres unmarked) [SR-29684]
- EC50: 2 nM

SMILES: c1ccc2c(NCC3CCCO3)nnc(Cc3ccncc3)c2c1 (centres unmarked) [SR-30004]
- EC50: 45 nM

SMILES: c1coc(CNc2nnc(Cc3ccncc3)c3ccccc23)c1 [SR-30005]
- EC50: 15 nM

SMILES: c1ccc2[nH]c(CNc3nnc(Cc4ccncc4)c4ccccc34)cc2c1 [SR-30006]
- EC50: 30 nM

SMILES: c1ccc2c(NCC3CCOCC3)nnc(Cc3ccncc3)c2c1 [SR-30008]
- EC50: 8 nM

SMILES: c1ccc2oc(Nc3nnc(Cc4ccncc4)c4ccccc34)nc2c1 [SR-30010]
- EC50: 2 nM

SMILES: c1ccc2oc(CNc3nnc(Cc4ccncc4)c4ccccc34)cc2c1 [SR-30011]
- EC50: 2 nM
